Measurements: article PMC5005338, “Escherichia coli Type III Secretion System 2 ATPase EivC Is Involved in the Motility and Virulence of Avian Pathogenic Escherichia coli” (Frontiers in Microbiology, 2016)

Biological target: EivC (His-EivC) (Escherichia coli, UniProt A0A160EFI3)
Details: 30 min assay; His-tagged protein

Sequence of EivC (His-EivC) (A0A160EFI3 entry or part of it): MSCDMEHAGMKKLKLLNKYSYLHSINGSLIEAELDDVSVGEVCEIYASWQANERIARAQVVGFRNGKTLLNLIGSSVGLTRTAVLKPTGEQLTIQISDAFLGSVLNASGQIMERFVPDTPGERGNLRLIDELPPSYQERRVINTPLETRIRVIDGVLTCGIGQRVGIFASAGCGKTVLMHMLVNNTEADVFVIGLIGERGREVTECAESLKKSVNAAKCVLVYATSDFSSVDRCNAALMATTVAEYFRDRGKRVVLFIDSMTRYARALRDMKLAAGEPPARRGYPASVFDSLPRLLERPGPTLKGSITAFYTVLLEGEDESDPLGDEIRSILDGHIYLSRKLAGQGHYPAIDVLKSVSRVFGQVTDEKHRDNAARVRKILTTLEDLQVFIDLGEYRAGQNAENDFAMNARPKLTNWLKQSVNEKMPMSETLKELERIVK

In the case of `Nc1ncnc2c1ncn2[C@@H]1O[C@H](COP(=O)(O)OP(=O)(O)OP(=O)(O)O)[C@@H](O)[C@H]1O` [ATP], the “phosphate release, malachite green ATPase assay kit” value is reported as “a His-EivC fusion protein was purified and tested for its ability to hydrolyze ATP”.
